The test has as its system NMRI-CERJ mice. Briefly: Antagonism of the hypermotility induced by amphetamine. To be noted: d-amphetamine 4 mg kg^-1 IP, 30 minutes. Format: in vivo. On the procedure: 4 mg kg^-1 of d-amphetamine are injected intraperitoneally (IP) into groups of 10 NMRI-CERJ mice immediately after IP injection of the compound to be tested, and the mice are placed in an actimeter for 30 minutes.
The number of interruptions of the photoelectric cells is counted, as is the stereotyped behavior.
The activity of the compounds tested is expressed as a percentage of the antagonism of the hyperactivity induced by amphetamine.

For `Cn1c(=O)sc2cc(CCN3CCC(Cc4ccccc4)CC3)ccc21` [Example 1, 3-METHYL-6-[2-(4-BENZYLPIPERID-1-YL)ETHYL]BENZOTHIAZOLINONE], the “percentage of the antagonism of the hyperactivity induced by amphetamine” value runs as follows: (2 mg.kg^-1 IP) 23%; (4 mg.kg^-1 IP) 50%; (8 mg.kg^-1 IP) 63%.

For the origin of these results see patent US5534511A, “Aminoalkyl benzoxazolinones and benzothiazolinones” (Adir et Compagnie, priority 1994, dated 1996).
